Results reported in publication PMC5390903, “Influence of drug transporters and stereoselectivity on the brain penetration of pioglitazone as a potential medicine against Alzheimer's disease” (Scientific Reports, 2015).

Assays:
CHO-APP695 cells = assay: Extracellular amyloid-β42 lowering in CHO-APP695 (sandwich ELISA); assay type: cell-based, Chinese hamster; conditions: 48 hours; for effect on increase in extracellular amyloid-β42: 10 μM, versus non-treated CHO-APP695
Description: Figure 4 Extracellular amyloid-β42 levels in culture media samples harvested from both CHO-WT and treated or non-treated CHO-APP695 following 48 hours of post-seeding incubation.
CHO (Chinese hamster ovary) cells stably transfected with mouse APP 695 (CHO-APP695) were used as the AD in vitro model in this experiment. CHO-APP695 and the wild type (CHO-WT) were kindly provided by G. S. Dawe (National University of Singapore, Singapore). Both cell lines were incubated at 37°C in the presence of 5% CO2 for all cell culture work. Cell lines were maintained in DMEM culture medium (Sigma D1152) containing 10% FBS and supplemented with 100 units/mL of penicillin and 100 μg/mL of streptomycin.
When cells were used for experiments, both CHO-APP695 and CHO-WT were standardised at third passage and harvested for seeding when the cells were at log-phase growth. Cells were seeded (n = 7) on 24-well cell culture plates at 1 × 10^5 cells/well in 0.5 mL of culture medium. To evaluate amyloid-lowering effects of (+)-pioglitazone and racemic pioglitazone on extracellular amyloid-β42 levels, additional groups (n = 7) of CHO-APP695 treated with (+)-pioglitazone, (+)-pioglitazone + T007, racemic pioglitazone, and racemic pioglitazone + T007 were also seeded. […] Upon completion of seeding after 24 hours, the culture medium in each well was replaced with 0.5 mL of fresh medium. Seeded cells were incubated further for 48 hours before the culture medium was individually harvested. Harvested samples were briefly centrifuged (800 g) for 5 minutes at 4°C before supernatants were transferred into clean 1.8-mL cryogenic vials and snap frozen in liquid nitrogen. All harvested samples were stored at −80°C until analysis.
Amyloid-β42 levels in culture media were harvested 48 hours after seeding incubation and were quantitatively measured using colorimetric sandwich ELISA kits according to the protocols provided by the manufacturer (#SIG-38954 and #SIG-38956 from Covance, Princeton, NJ). […] All absorbance readings were measured using a Tecan Infinite M200 microplate reader (Tecan, Switzerland).

[1] = rats, dogs, and monkeys; cited from earlier work
[2] = set-up: method as in PMID 21819568; conditions: monkeys; cited from earlier work
in vivo = conditions: 30 mg/kg
Description: Our established UPLC-MS/MS method was used to quantify pioglitazone concentrations in plasma and brain samples harvested at different time points (1, 2, 4, 6, and 8 hours) after mice were given either racemic pioglitazone or (+)-pioglitazone.
Error bar represents one SD.
A total of forty mice were split into two treatment groups (n = 20), with one group receiving a single dose of the racemic pioglitazone (30 mg/kg, p.o.) and another group receiving the purified (+)-pioglitazone (30 mg/kg, p.o.). Both compounds were dissolved in Milli-Q water using 1% DMSO as co-solvent. Following oral administration of the test compounds, mice from both treatment groups were split again into five subgroups (n = 4), and mice belonging to different subgroups were sacrificed at different time points (1 hour, 2 hours, 4 hours, 6 hours, and 8 hours after oral dosing). All mice were sacrificed by CO2 euthanasia and blood samples were taken via cardiac puncture. Blood samples were then centrifuged at 4000 g (10 minutes) to collect the plasma. Whole brains were collected following transcardial perfusion with saline to remove blood from organs. […] Pioglitazone concentrations versus time graphs were constructed for both brain and plasma samples, and area under curve (AUC) for both (+)-pioglitazone and racemic pioglitazone were then used to assess each tissue's exposure to pioglitazone. AUC was calculated from time 0 hour to infinity (AUC0–∞) for both types of samples using the trapezoidal rule. Comparisons of pioglitazone concentrations in different sample matrices between the two treatment groups were performed using two-tailed independent t-test with Welch's correction, and statistical significance was defined as P < 0.05.

[3] = In vivo investigation of P-gp and BCRP contributions to limited brain penetration of pioglitazone (brain-to-plasma ratio after transporter inhibitor pre-treatment); conditions: C57BL/6, mouse, in vivo, 30 mg/kg
Description: (§1) All animals were pre-treated with the respective drug transporter inhibitor(s) 30 minutes before administration of pioglitazone. Thirty minutes after treatment with pioglitazone, all animals were sacrificed and plasma and brain samples were collected. […] The brain-to-plasma ratios of pioglitazone concentrations were used to assess penetration of brain tissue.
(§2) Figure 1 All animals were pre-treated with either the vehicle or the respective drug-transporter inhibitor (n = 6 for each treatment group) 30 minutes prior to drug treatment. Plasma and brain samples were then collected from the animals 30 minutes after pioglitazone treatment. (A) Pioglitazone levels in plasma samples harvested from mice given i.p. pioglitazone with or without pre-treatment of LY335979 (P-gp blocker) and/or Ko143 (BCRP blocker). (B) Brain-to-plasma ratios of pioglitazone concentrations calculated for each mouse given i.p. pioglitazone with or without pre-treatment of LY335979 and/or Ko143.
(§3) A total of 24 mice were divided into four treatment groups (n = 6), where three groups received pre-treatment of efflux pump inhibitors (P-gp inhibitor LY335979, BCRP inhibitor Ko143, and a combination of LY335979 + Ko143) and one group received vehicle pre-treatment as a control. All test compounds (pioglitazone, LY335979, and Ko143) were dissolved in Milli-Q water using 1% DMSO as co-solvent. Pre-treatments of LY335979 (25 mg/kg), Ko143 (5 mg/kg) or a combination of both were given in a single intra-peritoneal (i.p.) injection 30 minutes before pioglitazone administration (i.p. injection, 30 mg/kg). […] Following another 30 minutes after pioglitazone administration, all mice were sacrificed by CO2 euthanasia and their blood samples were collected via cardiac puncture into Eppendorf tubes supplemented with heparin. Transcardial perfusion with saline was then performed on the sacrificed mice to remove traces of blood from organs before the whole brain tissues were harvested. All biological samples were kept on ice immediately after collection. […]

[4] = tested on: P-gp and BCRP drug efflux transporters at the blood-brain-barrier; assay: as above
Description: as §1, §2, §3

P-gp = tested on: P-gp; set-up: method as in PMID 10820137; conditions: 25 mg/kg; mice; cited from earlier work
BCRP = tested on: BCRP; set-up: method as in PMID 22828996; conditions: 5 mg/kg; mice; cited from earlier work

Compound: CCc1ccc(CCOc2ccc(CC3SC(=O)NC3=O)cc2)nc1 (stereo not drawn) [pioglitazone, Pioglitazone]
- effect on increase in extracellular amyloid-β42 (CHO-APP695 cells): reduced significantly
- share of serum pioglitazone found in the CSF [1]: approximately 18%
- cerebral spinal fluid (CSF) concentration as % of plasma concentrations [2]: less than 3%
- AUC(0-inf) (in vivo; C57BL/6, mouse, po): 262 µg·h/mL
- Cmax (in vivo; C57BL/6, mouse, po): 53.5 ± 8.07 µg/mL
- Tmax (in vivo; C57BL/6, mouse, po): 1 h
- brain AUC0–∞ of pioglitazone (in vivo; C57BL/6, mouse, po): 22.7 µg·h/mL
- brain Cmax of pioglitazone (in vivo; C57BL/6, mouse, po): 4.88 ± 0.34 µg/mL
- Kp at 30 min [3]: 0.107 ± 0.0125
- transporter substrate status ([4]; mouse, in vivo): substrate of P-gp
- pioglitazone brain-to-plasma concentration ratio ([4]; vehicle pre-treatment (control), pioglitazone 30 mg/kg i.p., 30 minutes after pioglitazone, n = 6): 10.65%

Compound: LY335979
- inhibition of P-gp (P-gp): 50%

Compound: CCc1ccc(CCOc2ccc(C[C@H]3SC(=O)NC3=O)cc2)nc1 (single isomer, unassigned) [(+)-pioglitazone]
- treatment effect on extracellular amyloid-β42 on co-administration of PPARγ selective blocker (T007) (CHO-APP695 cells; 10 μM each): nullified
- effect on increase in extracellular amyloid-β42 (CHO-APP695 cells): reduced significantly
- brain AUC0–∞ / brain exposure higher than after racemic pioglitazone (in vivo; mouse): 76%
- brain AUC0–∞ of pioglitazone (in vivo; mouse, po): 40 µg·h/mL
- brain Cmax of pioglitazone (in vivo; mouse, po): 5.07 ± 0.38 µg/mL
- peak time (Tmax) of plasma pioglitazone (in vivo; mouse, po): 1 h
- plasma AUC0–∞ of pioglitazone (in vivo; mouse, po): 274 µg·h/mL
- plasma concentration maximum (Cmax) of pioglitazone (in vivo; mouse, po): 39.92 ± 6.20 µg/mL

Compound: COc1ccc2c3c([nH]c2c1)[C@H](CC(C)C)N1C(=O)[C@H](CCC(=O)OC(C)(C)C)NC(=O)[C@@H]1C3 [Ko143]
- inhibition of BCRP (BCRP): 50%
